{"source": "patent US6677310B1", "about": "“Ring-expanded nucleosides and nucleotides” (Nabi, priority 1999, dated 2004)", "molecular_target": "T1, bacteriophage T7 RNA polymerase (Escherichia phage T7, UniProt P00573)", "T1 construct": "purchased Promega P2075", "T1 sequence (P00573 whole entry)": "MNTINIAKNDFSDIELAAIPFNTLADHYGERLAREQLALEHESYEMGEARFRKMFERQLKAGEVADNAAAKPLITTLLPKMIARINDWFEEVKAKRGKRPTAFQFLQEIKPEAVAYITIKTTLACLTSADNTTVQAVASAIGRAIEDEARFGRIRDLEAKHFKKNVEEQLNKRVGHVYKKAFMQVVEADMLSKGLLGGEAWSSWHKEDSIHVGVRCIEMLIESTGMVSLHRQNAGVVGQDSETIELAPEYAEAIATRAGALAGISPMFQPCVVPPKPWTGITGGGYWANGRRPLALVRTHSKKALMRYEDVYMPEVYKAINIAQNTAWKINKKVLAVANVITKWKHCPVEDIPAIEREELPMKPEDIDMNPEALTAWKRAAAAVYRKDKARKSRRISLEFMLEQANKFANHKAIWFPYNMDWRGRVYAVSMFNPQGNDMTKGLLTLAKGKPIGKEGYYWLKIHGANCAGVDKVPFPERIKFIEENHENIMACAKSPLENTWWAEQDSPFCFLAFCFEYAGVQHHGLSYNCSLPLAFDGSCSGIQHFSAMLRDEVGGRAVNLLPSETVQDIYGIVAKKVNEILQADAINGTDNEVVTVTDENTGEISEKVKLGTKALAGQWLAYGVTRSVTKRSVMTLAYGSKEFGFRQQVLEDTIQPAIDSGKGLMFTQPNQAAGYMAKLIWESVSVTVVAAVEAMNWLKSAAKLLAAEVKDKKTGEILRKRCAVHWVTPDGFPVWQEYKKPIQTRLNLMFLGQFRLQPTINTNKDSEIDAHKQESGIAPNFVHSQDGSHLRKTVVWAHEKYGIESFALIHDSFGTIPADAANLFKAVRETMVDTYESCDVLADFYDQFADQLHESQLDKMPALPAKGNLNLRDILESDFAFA", "assay": "Transcription catalyzed by T7 RNA polymerase", "format": "biochemical", "method": "To show whether the “fat” nucleotide Compound 15-2 (FNTP) is incorporated into RNA during transcription, experiments were performed using bacteriophage T7 RNA polymerase (RNAP) and a synthetic 42-mer DNA template shown below that is annealed to a 17-nucleotide promoter specific for T7 RNAP. This promoter-template enables the synthesis of 25-mer RNA, and the purine analogue may be incorporated in positions +1, +11, +13, +15, +21, +22, and +23.\nTranscription reaction conditions were optimized with the use of ^32P CTP for labeling RNA transcripts. Polyacrylimide gel electrophoresis of the transcription products obtained from the 42-mer template, using 1 mM each of four natural NTPs, reveled a 25-mer RNA as the major product, together with shorter and longer labeled transcripts (FIG. 9, lane 1). The additional bands observed are consistent with the known ability of T7 RNA polymerase to add non-coded residues at the 3′-end of transcripts. (Milligan, J. F., et al., Nuc. Acids Res., 15, 8783-8798, 1987) With the use of 1 mM nucleotide Compound 15-2 (FNTP), the yield of transcription was reduced (lane 2).\nWith the use of a synthetic 37-mer DNA template, annealed to a 17-nucleotide promoter for T7 RNAP as shown below, a 20 nucleotide-long transcript RNA was obtained when the reaction mixture contained all four NTPs in appropriate concentrations, along with many shorter “abortive” fragments. (Milligan, J. F., et al., Nuc. Acids Res., 15, 8783-8798, 1987). For the reaction with modified nucleotide, typically\nthe concentration of the appropriate natural nucleotide was reduced. […] (Milligan, J. F., et al., Methods in Enzymol., 180, 51-63, 1989.) In the present experiments, the synthesis of RNA was compared under standard conditions (using 4 NTPs in 0.2 mM concentration each) with the synthesis of RNA by using an additional “fat” nucleoside triphosphate Compound 15-2 (FNTP) in varying (0.05-10 mM) concentrations. The reaction mixtures were incubated at 37° C. for 2 hours, and the products were denatured in a buffer containing urea. The products were separated by 20% polyacrylamide-urea gel electrophoresis and visualized by autoradiography.\nTranscription samples (total volume 10 μL contained: 40 mM Tris-HCl pH 8.1 with 6 mM MgCl2, 5 mM dithiothreitol (DTT), 1 mM spermidine, 0.01% Triton-X 100, 50 μg/mL bovine serum albumin, 250 nM synthetic DNA template with a promotor for T7 RNAP, 4 units of T7 RNA polymerase, and 0.2 mM ribonucleoside triphosphates. A single α^32P-labeled NTP was added for labeling (typicallly 1 μL of 10 mCi/mL ). Inhibition assays were monitored with varying concentrations (0.05-10 mM) of nucleotide Compound 15-2. Polyacrylamide gel (20%) electrophoresis was performed on slab gels (18 cm×16 cm, or 35 cm×44 cm) containing 8M urea. […]"}
{"smiles": "N=c1nc(N)c2ncn([C@@H]3O[C@H](CO)[C@@H](O)[C@H]3O)c2c(N)n1", "note": "[Compound 14-2, 4,8-Diamino-6H-6-imino-1-β-D-ribofuranosylimidazo[4,5-e][1,3]diazepine]", "values": [{"measurement": "incorporation into RNA during transcription (substrate for T7 polymerase)", "setting": "42-mer DNA template", "value": "neither incorporation nor inhibition"}, {"measurement": "inhibition of T7 RNA polymerase-catalyzed transcription", "setting": "42-mer and 37-mer DNA templates, 0.05-10 mM", "value": "failed to cause inhibition of the transcription"}]}
